In US20020146441A1, “Selection method for cosmetic auxiliaries” (priority 2000, published 2002):

Assays:
[1] = O/W emulsion, substantivity on skin model (water resistance, watering test); format: physicochemical, sheep; details: amount found after 20 min watering relative to unwatered sample, isopropanol extract, GC, converted to the logarithm
Method: (§1) The amounts of the cosmetic auxiliaries found in the phase to be cared for are compared with the amount found in the cosmetic phase (relative partition parameters). These values are converted to the logarithm and entered as activity values into the regression table (Table 1). Using various methods, regression against the COSMO-RS and other descriptors (e.g. clogP and boiling point) are carried out, and the best correlation according to the validation is selected. In all of the regression equations belonging to the examples, cosmetic auxiliaries with a deviation in the regression of more than +/−0.43 log units from the experimental value are defined as outliers. […] In the next step, the COSMO-RS regression equation is linked to the regression table which contains all descriptors for all cosmetic auxiliaries. The use of the COSMO-RS regression equation on all cosmetic auxiliaries gives the prediction for the logarithmic relative partition parameters for all cosmetic auxiliaries. These values are then used for the manufacture of cosmetic products. The procedure is analogous in all examples.
(§2) The example reflects the substantivity of a sunscreen emulsion. The emulsion is applied to a skin model (sheep shorn wool, because of the content of wool grease), and the substantivity thereto is tested using a watering test. The emulsion is prepared in the generally customary manner. The UV filters and a mixture of 39 odorants are incorporated in accordance with the formulations. 0.10 g of this emulsion is applied to a section of the skin model 5×10 cm in size. After drying for 30 min, the sample is stirred for 20 min in 4.5 l of water at room temperature. The sample is left to dry for 12 hours and then boiled for 10 min with 60 ml of isopropanol in a closed system. The extract is transferred to a measuring flask and made up to 100 ml. 0.10 g of the emulsion is applied to another section of the skin model. After drying for 12 hours, it is extracted with isopropanol as above. The extracts are injected in equal amounts one after the other into a GC injector, and gas chromatograms are recorded. The amounts of the UV filters and odorants found in the extracts are compared with one another (relative partition parameters). The analytical results are then used mathematically as described above.

[2] = W/O emulsion, substantivity on skin model (water resistance, watering test); format: physicochemical, sheep; details: amount found after 20 min watering relative to unwatered sample, isopropanol extract, GC, converted to the logarithm
Method: as §1, §2

Q: Which “Activity (logarithmic partition parameter for substantivity on a skin model)” value [1] does the source give for `CC(C=O)Cc1ccc(C(C)(C)C)cc1` (centres unmarked) [Lilial] here?
A: The value was −0.1280.

Q: And the “Activity (logarithmic partition parameter for substantivity on a skin model)” value [2]?
A: The value was −0.2120.

Q: With `COc1ccc(C=CC(=O)OCCC(C)C)cc1` [Neo Heliopan ® E1000, Isoamyl p-Methoxycinnamate] as the molecule, how does the “Activity (logarithmic partition parameter for substantivity on a skin model)” value [1] read?
A: Its value is −0.0762.

Q: What about the “Activity (logarithmic partition parameter for substantivity on a skin model)” value [2] of the same molecule?
A: Its value is −0.2128.

Q: What does the source list for `CCCCC(CC)COC(=O)c1ccccc1O` (centres unmarked) [Neo Heliopan ® OS, 2-Ethylhexylsalicylate]?
A: Activity (logarithmic partition parameter for substantivity on a skin model) [1]: −0.1464; Activity (logarithmic partition parameter for substantivity on a skin model) [2]: −0.2497

Q: What does the source list for `CC(=O)O[C@]1(C)CC[C@@]23C[C@@H]1C(C)(C)[C@@H]2CC[C@H]3C` [Cedryl acetate]?
A: Activity (logarithmic partition parameter for substantivity on a skin model) [1]: −0.0330; Activity (logarithmic partition parameter for substantivity on a skin model) [2]: −0.0170

Q: With `CC(=O)/C=C/C1C(C)=CCCC1(C)C` (stereo not drawn) [Ionone alpha] as the molecule, how does the “Activity (logarithmic partition parameter for substantivity on a skin model)” value [2] read?
A: Its value is −0.0120.

Q: What does the source list for `CC1CCC(C(C)C)C(OC(=O)c2ccccc2N)C1` (centres unmarked) [Neo Heliopan ® MA, Menthyl anthranilate]?
A: Activity (logarithmic partition parameter for substantivity on a skin model) [1]: −0.1314; Activity (logarithmic partition parameter for substantivity on a skin model) [2]: −0.2300

Q: With `COc1ccc(C(=O)CC(=O)c2ccc(C(C)(C)C)cc2)cc1` [Neo Heliopan ® NH 357] as the molecule, how does the “Activity (logarithmic partition parameter for substantivity on a skin model)” value [1] read?
A: Its value is −0.1922.

Q: And the “Activity (logarithmic partition parameter for substantivity on a skin model)” value [2]?
A: Its value is −0.1879.

Q: With `O=C(OCc1ccccc1)c1ccccc1O` [Benzyl salicylate] as the molecule, how does the “Activity (logarithmic partition parameter for substantivity on a skin model)” value [1] read?
A: The value was −0.1300.

Q: What about the “Activity (logarithmic partition parameter for substantivity on a skin model)” value [2] of the same molecule?
A: The value was −0.1480.

Q: With `CC1CC(OC(=O)c2ccccc2O)CC(C)(C)C1` (centres unmarked) [Neo Heliopan ® HMS, Homosalate] as the molecule, how does the “Activity (logarithmic partition parameter for substantivity on a skin model)” value [1] read?
A: The value was −0.1571.

Q: What about the “Activity (logarithmic partition parameter for substantivity on a skin model)” value [2] of the same molecule?
A: The value was −0.2733.

Q: With `CC(=O)/C=C/C1=C(C)CCCC1(C)C` [Ionone, beta] as the molecule, how does the “Activity (logarithmic partition parameter for substantivity on a skin model)” value [2] read?
A: Its value is 0.1556.

Q: Which “Activity (logarithmic partition parameter for substantivity on a skin model)” value [1] does the source give for `CC(C)CCOC(=O)c1ccccc1O` [Isoamyl salicylate] here?
A: Its value is −0.0960.

Q: And the “Activity (logarithmic partition parameter for substantivity on a skin model)” value [2]?
A: Its value is −0.2740.

Q: For `Cc1ccc(C=C2C(=O)C3(C)CCC2C3(C)C)cc1` (centres unmarked) [Neo Heliopan ® MBC, 4-Methylbenzylidene Camphor], which “Activity (logarithmic partition parameter for substantivity on a skin model)” value [1] is on record?
A: The value was −0.0966.

Q: What about the “Activity (logarithmic partition parameter for substantivity on a skin model)” value [2] of the same molecule?
A: The value was −0.2018.

Q: With `C[C@@H]1CC[C@H]2C(C)(C)[C@H]3C[C@@]12CC[C@@]3(C)O` [Cedrol] as the molecule, how does the “Activity (logarithmic partition parameter for substantivity on a skin model)” value [1] read?
A: The value was −0.0320.

Q: What about the “Activity (logarithmic partition parameter for substantivity on a skin model)” value [2] of the same molecule?
A: Its value is −0.0111.

Q: Which results are given for `CCCCCC/C(C=O)=C\c1ccccc1` [Hexylcinnamaldehyde, alpha]?
A: Activity (logarithmic partition parameter for substantivity on a skin model) [1]: −0.1250; Activity (logarithmic partition parameter for substantivity on a skin model) [2]: −0.1399

Q: With `C=C1C2CCC(C2)C1(C)C` (centres unmarked) [Camphene] as the molecule, how does the “Activity (logarithmic partition parameter for substantivity on a skin model)” value [2] read?
A: Its value is −0.2420.

Q: Which “Activity (logarithmic partition parameter for substantivity on a skin model)” value [1] does the source give for `COc1ccc(C(=O)c2ccccc2)c(O)c1` [Neo Heliopan ® BB, Benzophenone-3] here?
A: The value was −0.1595.

Q: What about the “Activity (logarithmic partition parameter for substantivity on a skin model)” value [2] of the same molecule?
A: Its value is −0.2689.

Q: Which “Activity (logarithmic partition parameter for substantivity on a skin model)” value [2] does the source give for `CC1=CCC2CC1C2(C)C` (stereo not drawn) [alpha-Pinene] here?
A: Its value is −0.2470.

Q: With `O=C1CCCCCCCCCCCC(=O)OCCO1` [Ethylene brassylate] as the molecule, how does the “Activity (logarithmic partition parameter for substantivity on a skin model)” value [1] read?
A: The value was 0.0010.

Q: What about the “Activity (logarithmic partition parameter for substantivity on a skin model)” value [2] of the same molecule?
A: The value was −0.0476.
